Several values for one entry are separate records, joined by “and”; a condition that tells them apart may be missing. Equal entries are not always repeated. Where two headings read alike, the source gives them in different places.
Key:
[1] = biological target: T1, human recombinant adrenergic α1D receptor (Homo sapiens, UniProt P25100); experiment: Radioligand binding, adrenergic α1D ([3H]Prazosin); conditions: for Percentage inhibition of ligand binding, Adrenergic α1D: 0.1 µM
T1 construct: expressed in transfected cells; host or cells: HEK-293
T1 sequence (P25100 1-572): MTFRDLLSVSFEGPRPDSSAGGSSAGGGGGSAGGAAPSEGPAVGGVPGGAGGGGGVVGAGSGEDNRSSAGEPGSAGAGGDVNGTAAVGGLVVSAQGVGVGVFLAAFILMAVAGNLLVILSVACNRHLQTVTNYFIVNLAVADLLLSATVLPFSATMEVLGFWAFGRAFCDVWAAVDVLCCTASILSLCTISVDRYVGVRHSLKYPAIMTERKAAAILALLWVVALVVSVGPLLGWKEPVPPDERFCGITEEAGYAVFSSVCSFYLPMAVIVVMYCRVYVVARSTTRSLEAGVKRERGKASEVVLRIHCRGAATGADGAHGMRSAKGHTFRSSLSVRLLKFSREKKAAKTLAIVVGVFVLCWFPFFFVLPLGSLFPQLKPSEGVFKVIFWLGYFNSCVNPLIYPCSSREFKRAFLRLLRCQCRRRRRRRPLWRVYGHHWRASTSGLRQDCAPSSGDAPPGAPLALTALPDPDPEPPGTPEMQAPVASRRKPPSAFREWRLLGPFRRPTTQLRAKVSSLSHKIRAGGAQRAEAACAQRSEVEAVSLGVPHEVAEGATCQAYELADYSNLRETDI
Procedure: Compounds were incubated with 0.6 nM [3H]Prazosin for 60 min at 25° C. Non-specific binding was estimated in the presence of 10 μM phentolamine. Receptor proteins were filtered and washed, the filters were then counted to determine [3H]Prazosin specifically bound. […] Biochemical assay results are presented as the percent inhibition of specific binding in Table B1.

[2] = biological target: T2, human recombinant adrenergic α2B receptor (Homo sapiens, UniProt P18089); experiment: Radioligand binding, adrenergic α2B ([3H]Rauwolscine); conditions: for inhibition at 0.1 µM / inhibition at 0.03 µM: read-out: Percentage inhibition of ligand binding, Adrenergic α2B
T2 construct: expressed in transfected cells; host or cells: CHO-K1
T2 sequence (P18089 1-450): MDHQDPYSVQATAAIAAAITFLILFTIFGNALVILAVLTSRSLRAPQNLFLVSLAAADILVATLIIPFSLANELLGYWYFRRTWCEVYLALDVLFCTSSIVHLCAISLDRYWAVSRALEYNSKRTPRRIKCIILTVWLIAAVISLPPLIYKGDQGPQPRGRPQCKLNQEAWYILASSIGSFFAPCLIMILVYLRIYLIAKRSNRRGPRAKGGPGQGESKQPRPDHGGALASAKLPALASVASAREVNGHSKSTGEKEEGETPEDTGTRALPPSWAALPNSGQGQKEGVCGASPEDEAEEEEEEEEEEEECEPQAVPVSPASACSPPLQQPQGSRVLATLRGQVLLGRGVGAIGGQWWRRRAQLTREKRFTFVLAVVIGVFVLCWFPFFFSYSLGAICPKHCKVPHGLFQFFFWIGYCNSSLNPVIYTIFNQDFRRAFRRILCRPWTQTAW
Outline: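 Assay used CHO-K1-expressed human α2B receptor in Tris-HCl pH 7.4 buffer with MgCl2, EDTA and BSA; 60 min incubation at 25 °C.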

[3] = biological target: T3, rat adrenergic α1B receptor (Rattus norvegicus, UniProt P15823); experiment: Radioligand binding, adrenergic α1B ([3H]Prazosin)
T3 construct: rat adrenergic α1B receptor obtained from Wistar Rat liver; from tissue; host or cells: Wistar rat liver
T3 sequence (P15823 1-515): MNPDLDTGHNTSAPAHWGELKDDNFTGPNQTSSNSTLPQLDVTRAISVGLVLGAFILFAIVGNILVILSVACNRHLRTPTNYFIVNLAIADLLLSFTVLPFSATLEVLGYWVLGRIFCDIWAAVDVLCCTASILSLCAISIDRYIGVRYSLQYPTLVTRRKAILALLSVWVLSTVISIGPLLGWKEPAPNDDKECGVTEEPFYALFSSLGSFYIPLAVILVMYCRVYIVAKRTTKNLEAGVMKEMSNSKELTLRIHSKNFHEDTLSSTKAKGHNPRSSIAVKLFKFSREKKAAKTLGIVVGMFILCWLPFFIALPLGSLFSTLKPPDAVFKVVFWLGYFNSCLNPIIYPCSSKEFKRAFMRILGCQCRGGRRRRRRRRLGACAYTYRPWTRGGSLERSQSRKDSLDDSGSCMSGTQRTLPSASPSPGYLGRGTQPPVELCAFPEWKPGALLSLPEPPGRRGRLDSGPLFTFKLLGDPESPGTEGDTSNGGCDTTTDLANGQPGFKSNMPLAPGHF
Outline: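 Specific binding, taken as total minus that remaining with 10 μM phentolamine, is measured after filtration and counting. Rat liver receptor preparation and 0.25 nM [3H]prazosin are incubated with compound in 50 mM Tris-HCl (pH 7.4, 0.5 mM EDTA) at 25° C for 60 min. Activity is reported as percent inhibition.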

[4] = biological target: T4, human recombinant adrenergic α2A receptor (Homo sapiens, UniProt P08913); experiment: Radioligand binding, adrenergic α2A ([3H]MK-912)
T4 construct: expressed in transfected cells; host or cells: insect Sf9 cells
T4 sequence (P08913 1-465): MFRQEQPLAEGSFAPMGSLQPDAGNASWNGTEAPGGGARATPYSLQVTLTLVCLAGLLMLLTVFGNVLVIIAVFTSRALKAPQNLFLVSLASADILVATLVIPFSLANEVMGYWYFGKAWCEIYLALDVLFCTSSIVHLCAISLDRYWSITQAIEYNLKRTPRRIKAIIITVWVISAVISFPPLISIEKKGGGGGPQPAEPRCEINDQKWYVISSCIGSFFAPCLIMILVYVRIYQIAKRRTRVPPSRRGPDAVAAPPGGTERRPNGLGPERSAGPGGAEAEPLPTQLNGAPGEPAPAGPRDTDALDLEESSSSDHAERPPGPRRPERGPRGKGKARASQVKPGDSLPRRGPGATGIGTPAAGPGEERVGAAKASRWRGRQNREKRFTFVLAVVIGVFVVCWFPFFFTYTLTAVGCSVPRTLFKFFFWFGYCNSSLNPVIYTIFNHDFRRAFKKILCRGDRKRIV
Outline: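 Receptor expressed in Sf9 cells, in 50 mM Tris-HCl pH 7.4, 12.5 mM MgCl2, 2 mM EDTA; compounds incubated with 1 nM [3H]MK-912 for 60 min at 25 °C.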

[5] = 0.1 μM compound, read-out: Percentage inhibition of ligand binding, Adrenergic α1B
[6] = 0.1 μM compound, read-out: Percentage inhibition of ligand binding, Adrenergic α2A
[7] = 0.1 μM compound, read-out: Percentage inhibition of ligand binding, Adrenergic α1D

Structure (SMILES) | Percentage inhibition of ligand binding, Adrenergic α1D ([1]; 0.1 μM compound) [%] | inhibition at 0.1 µM [3, 5] [%] | inhibition at 0.1 µM [4, 6] [%] | inhibition at 0.1 µM [1, 7] [%] | inhibition at 0.1 µM ([2]; 0.1 μM compound) [%] | other results
CC(Cn1c2c(c3ccccc31)CN(C)CC2)c1ccc(F)cc1 (single isomer, unassigned) [272a] | 12 | 27 | – | – | – | Percentage inhibition of ligand binding, Adrenergic α2B ([2]; 0.1 μM compound): −10%; Percentage inhibition of ligand binding, Adrenergic α2A ([4]; 0.1 μM compound, 0.1 µM): 33%
CC(Cn1c2c(c3ccccc31)CN(C)CC2)c1ccc(F)cc1 (single isomer, unassigned) [272b] | 36 | – | – | – | – | Percentage inhibition of ligand binding, Adrenergic α1B ([3]; 0.1 μM compound, 0.1 µM): 30%; Percentage inhibition of ligand binding, Adrenergic α2A ([4]; 0.1 μM compound, 0.1 µM): 68%
Cc1ccc2c(c1)c1c(n2CC(C)c2ccc(F)cc2)CCN(C)C1 (single isomer, unassigned) [288b] | 17 | – | – | – | – | Percentage inhibition of ligand binding, Adrenergic α1B ([3]; 0.1 μM compound): 39%; Percentage inhibition of ligand binding, Adrenergic α2A ([4]; 0.1 μM compound): 67%
Cc1ccc2c(c1)c1c(n2CC(C)c2ccc(C)nc2)CCN(C)C1 (single isomer, unassigned) [289a] | 57 | – | 60 | – | – | Percentage inhibition of ligand binding, Adrenergic α1B ([3]; 0.1 μM compound, 0.1 µM): 51%
Cc1ccc2c(c1)c1c(n2CC(C)c2ccc(C)nc2)CCN(C)C1 (single isomer, unassigned) [289b] | −2 | – | – | – | – | Percentage inhibition of ligand binding, Adrenergic α2B ([2]; 0.1 μM compound): 54%; Percentage inhibition of ligand binding, Adrenergic α1B ([3]; 0.1 μM compound, 0.1 µM): 12%; Percentage inhibition of ligand binding, Adrenergic α2A ([4]; 0.1 μM compound, 0.1 µM): 53%
COc1ccc(C(C)(O)Cn2c3c(c4cc(C)ccc42)CN(C)CC3)cc1 (centres unmarked) [254a] | – | 75 | 58 | 36 | 85 | –
COc1ccc(C(C)(O)Cn2c3c(c4cc(C)ccc42)CN(C)CC3)cc1 (centres unmarked) [254b] | 22 | – | – | – | – | Percentage inhibition of ligand binding, Adrenergic α2B ([2]; 0.1 μM compound, 0.1 µM): 79%; Percentage inhibition of ligand binding, Adrenergic α1B ([3]; 0.1 μM compound, 0.1 µM): 63%; Percentage inhibition of ligand binding, Adrenergic α2A ([4]; 0.1 μM compound, 0.1 µM): 57%
Cc1ccc(CCn2c3c(c4c(C)ccc(C)c42)CN(C)CC3)cn1 [II-18] | – | -7 | 14 | -9 | -15 | –
Cc1cc(Br)c2c(c1)c1c(n2CCc2ccc(C)nc2)CCN(C)C1 [II-39] | – | 16 | 27 | 13 | -14 | –
CN1CCc2c(n(CC(O)c3ccccc3F)c3ccc(Cl)cc23)C1 (centres unmarked) [II-48] | – | 27 | 26 | 8 | 0 | –
Cc1ccc(C(C)(O)Cn2c3c(c4cc(Cl)ccc42)CN(C)CC3)cc1 (centres unmarked) [II-56] | – | 54 | 31 | 11 | 78 | –
CCc1ccc(/C(C)=C/n2c3c(c4cc(C)ccc42)CN(C)CC3)cn1 [II-77] | – | 54 | 43 | 66 | 108 | –
Cc1ccc2c(c1)c1c(n2C2=C(c3ccc(C)nc3)CCC2)CCN(C)C1 [II-82, 2,8-dimethyl-5-(2-(6-methylpyridin-3-yl)cyclopent-1-enyl)-2,3,4,5-tetrahydro-1H-pyrido[4,3-b]indole] | – | 13 | 45 | 23 | 48 | inhibition at 0.03 µM ([2]; 0.03 μM compound): 35%; Percentage inhibition of ligand binding, Adrenergic α2B ([2]; 0.1 μM compound, 0.1 µM): 53%; Ki ([2]; read-out: Ki α2B): 26.8 nM
C/C(=C\n1c2c(c3cc(C)ccc31)CN(C)CC2)c1ccc(F)nc1 [II-96] | – | 39 | 49 | 31 | 95 | –
CN1CCc2c(c3cccnc3n2CCc2ccc(C(F)(F)F)nc2)C1 [II-103, 6-methyl-9-(2-(6-(trifluoromethyl)pyridin-3-yl)ethyl)-6,7,8,9-tetrahydro-5H-pyrrolo[2,3-b:4,5-c′]dipyridine] | – | 1 | -5 | 8 | 35 | –
C/C(=C\n1c2c(c3cc(C)cnc31)CN(C)CC2)c1ccc(C)nc1 [compound 78] | – | – | – | – | – | inhibition at 0.1 µM ([1]; compound at 0.1 μM, [3H]Prazosin, repeat assays, each datapoint shown, read-out: Percentage inhibition of ligand binding, Adrenergic α1D): 22%; inhibition at 0.03 µM ([2]; compound at 0.03 μM, [3H]Rauwolscine, repeat assays, each datapoint shown): 67%; inhibition at 0.1 µM ([2]; compound at 0.1 μM, [3H]Rauwolscine, repeat assays, each datapoint shown): 87%; Percentage inhibition of ligand binding, Adrenergic α1B ([3]; compound at 0.1 μM, [3H]Prazosin, repeat assays, each datapoint shown, 0.1 µM): 12%; inhibition at 0.1 µM ([3]; compound at 0.1 μM, [3H]Prazosin, repeat assays, each datapoint shown, read-out: Percentage inhibition of ligand binding, Adrenergic α1B): 11%
Cc1ccc2c(c1)c1c(n2CCc2ccccc2)CCN(C)C1 [compound 200] | – | – | – | – | – | inhibition at 0.1 µM ([1]; read-out: Percentage inhibition of ligand binding, Adrenergic α1D (0.1 μM), compound at 0.1 μM, [3H]Prazosin, repeat datapoints each shown): 69%; inhibition at 0.03 µM ([3]; read-out: Percentage inhibition of ligand binding, Adrenergic α1B (0.03 μM), compound at 0.03 μM, [3H]Prazosin, repeat datapoints each shown): 63%; inhibition at 0.1 µM ([3]; read-out: Percentage inhibition of ligand binding, Adrenergic α1B (0.1 μM), compound at 0.1 μM, [3H]Prazosin, repeat datapoints each shown): 83%; Ki [4]: 1.63 nM and 3.21 nM; inhibition at 0.03 µM ([4]; read-out: Percentage inhibition of ligand binding, Adrenergic α2A (0.03 μM), compound at 0.03 μM, [3H]MK-912, repeat datapoints each shown): 81%; inhibition at 0.1 µM ([4]; read-out: Percentage inhibition of ligand binding, Adrenergic α2A (0.1 μM), compound at 0.1 μM, [3H]MK-912, repeat datapoints each shown): 92%

Source: US8791132B2, “Compounds and methods for treatment of hypertension” (Medivation Technologies, Inc., priority 2011, dated 2014)
